Blank lines part the entries; values can stand above or below the compound they belong to.
How the values were obtained:
Type in all cases: biochemical
PTPσ [1] = molecular target: T1, PTPσ (Homo sapiens, UniProt Q13332); test: pNPP phosphatase assay with purified GST-PTPσ, positive control
T1 construct: gene PTPRS; GST-tagged recombinant PTPσ, all residues C-terminal to the transmembrane domain (BC104812 cDNA; aa 883-1501)
T1 sequence (Q13332 1330-1948): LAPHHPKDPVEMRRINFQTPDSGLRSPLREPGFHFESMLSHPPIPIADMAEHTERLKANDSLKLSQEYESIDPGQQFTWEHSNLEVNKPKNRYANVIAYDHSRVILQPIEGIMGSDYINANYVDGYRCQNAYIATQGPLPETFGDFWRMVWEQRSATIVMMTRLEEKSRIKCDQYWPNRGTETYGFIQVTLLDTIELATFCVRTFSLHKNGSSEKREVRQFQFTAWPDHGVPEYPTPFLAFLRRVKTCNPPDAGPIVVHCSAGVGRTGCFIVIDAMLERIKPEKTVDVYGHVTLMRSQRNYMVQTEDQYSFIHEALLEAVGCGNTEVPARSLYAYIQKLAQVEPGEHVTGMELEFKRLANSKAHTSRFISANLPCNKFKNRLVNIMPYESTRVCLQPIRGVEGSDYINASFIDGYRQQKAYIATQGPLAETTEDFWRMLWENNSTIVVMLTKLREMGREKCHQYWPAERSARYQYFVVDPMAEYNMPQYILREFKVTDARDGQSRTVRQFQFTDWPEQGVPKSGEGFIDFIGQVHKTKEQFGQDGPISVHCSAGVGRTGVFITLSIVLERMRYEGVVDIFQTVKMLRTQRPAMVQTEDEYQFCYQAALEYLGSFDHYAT

PTPσ [2] = molecular target: T1, PTPσ; test: pNPP phosphatase assay with purified GST-PTPσ, dose-response, with and without catalase
PTPσ [3] = molecular target: T1, PTPσ; test: Km from initial velocities of dephosphorylation ([…] nm absorbance)

Compound: [O]=[V]([OH])([OH])[OH] [Na3VO4, sodium orthovanadate]
pNPP phosphatase assay with purified GST-PTPσ, positive control (PTPσ [1]): Sodium orthovanadate (Na3VO4) is a pan inhibitor of PTPs and was included as a positive control

IC50 (PTPσ [2]): 10 µM
Compound: O=C(C=CNc1cc([N+](=O)[O-])ccc1O)c1ccc(Cl)c(Cl)c1 [compound 36, 1-(3,4-dichlorophenyl)-3-[(2-hydroxy-5-nitrophenyl)amino]-2-propen-1-one]

Compound: para-nitrophenyl phosphate [pNPP]
Km (PTPσ [3]): 250 µM

Source: article PMC3502291, “Identification of Small Molecule Inhibitors of PTPσ through an Integrative Virtual and Biochemical Approach” (PLoS ONE, 2012)
